Where a SMILES comes first, the peptide text is derived from it.
What follows are molecules tested against HLA A*3201 (Homo sapiens, UniProt P04439, A270S/D101S/D185E/E176V/E277Q/F133L/G103R/G107R/G231S/H175R/I121M/I218V/I322F/K168Q/L105A/L300P/L318F/M331R/P208A/P217A/Q94H/R106L/R138Q/S129P/T104I/T323A/T345S/V100E/V321M/V358M) (assay: biochemical).
Type: binding

| SMILES | IC50 [nM] |
| --- | --- |
| CC[C@H](C)[C@H](NC(=O)[C@H](CC(N)=O)NC(=O)[C@H](CC(N)=O)NC(=O)[C@@H](NC(=O)[C@@H]1CCCN1C(=O)[C@H](CCC(N)=O)NC(=O)[C@H](CC(N)=O)NC(=O)[C@H](CC(C)C)NC(=O)[C@@H](N)CCCNC(=N)N)C(C)C)C(=O)O [3102.0398] (H-RLNQPVNNI-OH) | 25 |
| CC[C@H](C)[C@H](NC(=O)[C@H](CO)NC(=O)[C@H](CS)NC(=O)[C@H](CCSC)NC(=O)[C@@H](N)C(C)C)C(=O)N[C@@H](CO)C(=O)N[C@@H](CC(C)C)C(=O)N[C@H](C(=O)N[C@@H](Cc1ccc(O)cc1)C(=O)O)[C@@H](C)O [3102.0394] (H-VMCSISLTY-OH) | 11 |
| CC(C)C[C@H](NC(=O)[C@H](CO)NC(=O)[C@H](CC(C)C)NC(=O)[C@@H](NC(=O)[C@H](CC(C)C)NC(=O)[C@H](Cc1c[nH]cn1)NC(=O)[C@H](CC(N)=O)NC(=O)[C@H](CC(C)C)NC(=O)[C@H](C)N)C(C)C)C(=O)O [3102.0469] (H-ALNHLVLSL-OH) | 41 |
| CC(C)C[C@H](NC(=O)[C@@H](N)Cc1ccc(O)cc1)C(=O)N[C@@H](Cc1ccccc1)C(=O)N[C@@H](CO)C(=O)N[C@@H](CCC(N)=O)C(=O)N[C@@H](CC(N)=O)C(=O)N[C@@H](Cc1ccc(O)cc1)C(=O)N[C@@H](CO)C(=O)N[C@@H](Cc1ccccc1)C(=O)O [3102.0410] (H-YLFSQNYSF-OH) | 1.4 |
| CC[C@H](C)[C@H](NC(=O)[C@H](CO)NC(=O)[C@H](CC(C)C)NC(=O)[C@H](CO)NC(=O)[C@H](CCCNC(=N)N)NC(=O)[C@H](Cc1c[nH]c2ccccc12)NC(=O)[C@@H](NC(=O)[C@@H](NC(=O)[C@H](C)N)[C@@H](C)O)[C@@H](C)CC)C(=O)O [3102.0452] (H-ATIWRSLSI-OH) | 1.9 |
| CC[C@H](C)[C@H](NC(=O)CNC(=O)[C@@H](NC(=O)[C@H](C)NC(=O)[C@@H](NC(=O)[C@H](CCCNC(=N)N)NC(=O)[C@H](CCSC)NC(=O)[C@H](CC(C)C)NC(=O)[C@@H](N)CCSC)C(C)C)C(C)C)C(=O)O [3102.0437] (H-MLMRVAVGI-OH) | 0.69 |
| CC[C@H](C)[C@H](NC(=O)[C@@H](NC(=O)[C@H](CC(C)C)NC(=O)[C@H](CC(C)C)NC(=O)[C@H](CC(N)=O)NC(=O)[C@H](Cc1ccc(O)cc1)NC(=O)[C@H](CCSC)NC(=O)[C@H](CC(C)C)NC(=O)[C@@H](N)CC(C)C)[C@@H](C)O)C(=O)O [3102.0454] (H-LLMYNLLTI-OH) | 72 |
| CC[C@H](C)[C@H](NC(=O)[C@H](CC(N)=O)NC(=O)[C@@H](NC(=O)[C@@H](NC(=O)[C@H](Cc1ccccc1)NC(=O)[C@@H](NC(=O)[C@H](C)NC(=O)[C@H](CC(C)C)NC(=O)[C@H](C)N)[C@@H](C)O)[C@@H](C)O)C(C)C)C(=O)O [3102.0344] (H-ALATFTVNI-OH) | 6.1 |
| CC[C@H](C)[C@H](NC(=O)[C@@H](N)CO)C(=O)N[C@@H](Cc1ccc(O)cc1)C(=O)N[C@@H](CCCNC(=N)N)C(=O)N[C@@H](CCSC)C(=O)N[C@@H](CO)C(=O)N[C@@H](Cc1ccc(O)cc1)C(=O)N[C@@H](CCC(N)=O)C(=O)N[C@@H](Cc1ccccc1)C(=O)O [3102.0425] (H-SIYRMSYQF-OH) | 0.8 |
| CC(C)C[C@H](NC(=O)CNC(=O)[C@H](C)NC(=O)[C@@H](NC(=O)[C@H](C)N)[C@@H](C)O)C(=O)N[C@@H](Cc1c[nH]cn1)C(=O)N[C@@H](CC(C)C)C(=O)NCC(=O)N[C@@H](Cc1ccccc1)C(=O)O [3102.0295] (H-ATAGLHLGF-OH) | 1.7 |
| CC[C@H](C)[C@H](NC(=O)[C@H](CO)NC(=O)[C@H](CCC(N)=O)NC(=O)[C@H](CCC(N)=O)NC(=O)[C@H](CC(C)C)NC(=O)[C@H](Cc1ccccc1)NC(=O)[C@H](CC(C)C)NC(=O)[C@@H](NC(=O)[C@@H](N)CCCCN)C(C)C)C(=O)O [3102.0312] (H-KVLFLQQSI-OH) | 0.7 |
| CC[C@H](C)[C@H](NC(=O)[C@H](CCC(=O)O)NC(=O)[C@H](Cc1ccccc1)NC(=O)[C@H](CO)NC(=O)[C@@H](N)CCCNC(=N)N)C(=O)N[C@H](C(=O)N[C@@H](CC(N)=O)C(=O)N[C@H](C(=O)N[C@@H](CC(C)C)C(=O)O)C(C)C)[C@@H](C)CC [3102.0322] (H-RSFEIINVL-OH) | 2.9 |
| CC[C@H](C)[C@H](NC(=O)[C@@H](NC(=O)[C@H](CC(N)=O)NC(=O)[C@H](Cc1ccccc1)NC(=O)[C@H](Cc1ccccc1)NC(=O)[C@@H](NC(=O)[C@@H](NC(=O)[C@@H](NC(=O)[C@@H](N)CCCCN)C(C)C)C(C)C)[C@@H](C)CC)[C@@H](C)O)C(=O)O [3102.0430] (H-KVVIFFNTI-OH) | 8.3 |
| CC[C@H](C)[C@H](NC(=O)[C@H](CCC(=O)O)NC(=O)[C@@H](NC(=O)[C@@H](NC(=O)[C@H](CCC(=O)O)NC(=O)[C@H](CC(N)=O)NC(=O)[C@@H](NC(=O)[C@@H](N)CCCCN)[C@@H](C)CC)C(C)C)C(C)C)C(=O)N[C@@H](Cc1ccccc1)C(=O)O [3102.0471] (H-KINEVVEIF-OH) | 19 |
| CC[C@H](C)[C@H](N)C(=O)N[C@@H](CCSC)C(=O)N[C@@H](CCSC)C(=O)N[C@H](C(=O)N[C@@H](CC(C)C)C(=O)N[C@@H](CO)C(=O)N[C@H](C(=O)N[C@H](C(=O)N[C@H](C(=O)O)[C@@H](C)CC)[C@@H](C)CC)[C@@H](C)O)[C@@H](C)CC [3102.0351] (H-IMMILSTII-OH) | 11 |
| CC(C)[C@H](NC(=O)CNC(=O)[C@H](Cc1ccc(O)cc1)NC(=O)[C@@H](NC(=O)[C@@H](N)CCCNC(=N)N)[C@@H](C)O)C(=O)N[C@@H](CC(N)=O)C(=O)N[C@@H](Cc1ccc(O)cc1)C(=O)N[C@H](C(=O)N[C@@H](Cc1ccccc1)C(=O)O)[C@@H](C)O [3102.0318] (H-RTYGVNYTF-OH) | 0.26 |
| CC[C@H](C)[C@H](NC(=O)[C@H](Cc1ccc(O)cc1)NC(=O)[C@H](CC(C)C)NC(=O)[C@H](CO)NC(=O)[C@@H](N)CCCCN)C(=O)N[C@H](C(=O)N[C@@H](CC(N)=O)C(=O)N[C@H](C(=O)N[C@@H](CC(C)C)C(=O)O)[C@@H](C)O)[C@@H](C)O [3102.0459] (H-KSLYITNTL-OH) | 0.52 |
| CC[C@H](C)[C@H](N)C(=O)N[C@@H](CC(C)C)C(=O)N[C@@H](Cc1ccc(O)cc1)C(=O)N[C@@H](Cc1ccc(O)cc1)C(=O)N[C@@H](CC(C)C)C(=O)N[C@@H](CO)C(=O)N[C@@H](C)C(=O)N[C@@H](CCCCN)C(=O)N[C@H](C(=O)O)[C@@H](C)CC [3102.0300] (H-ILYYLSAKI-OH) | 8.9 |
| CC[C@H](C)[C@H](NC(=O)[C@H](CC(=O)O)NC(=O)[C@H](CC(C)C)NC(=O)[C@@H](NC(=O)[C@@H](N)CC(C)C)[C@@H](C)O)C(=O)N[C@@H](Cc1ccccc1)C(=O)N[C@@H](Cc1ccc(O)cc1)C(=O)N[C@@H](CC(C)C)C(=O)N[C@@H](Cc1ccccc1)C(=O)O [3102.0354] (H-LTLDIFYLF-OH) | 4.4 |
| CC[C@H](C)[C@H](NC(=O)[C@H](C)NC(=O)[C@H](CCC(N)=O)NC(=O)[C@H](Cc1ccccc1)NC(=O)[C@H](C)NC(=O)[C@H](Cc1ccccc1)NC(=O)[C@H](CO)NC(=O)[C@@H](NC(=O)[C@@H](N)CCCNC(=N)N)[C@@H](C)O)C(=O)O [3102.0512] (H-RTSFAFQAI-OH) | 3.8 |
| CC[C@H](C)[C@H](NC(=O)[C@H](CC(C)C)NC(=O)[C@@H](N)CCCNC(=N)N)C(=O)N[C@@H](CC(N)=O)C(=O)N[C@@H](CC(N)=O)C(=O)N[C@@H](CCCNC(=N)N)C(=O)N[C@H](C(=O)N[C@@H](CC(C)C)C(=O)N[C@@H](Cc1ccccc1)C(=O)O)C(C)C [3102.0428] (H-RLINNRVLF-OH) | 5.7 |
| CC[C@H](C)[C@H](NC(=O)[C@H](CCCCN)NC(=O)[C@H](Cc1ccccc1)NC(=O)[C@H](CCSC)NC(=O)[C@@H](N)[C@@H](C)O)C(=O)N[C@H](C(=O)N[C@@H](Cc1ccc(O)cc1)C(=O)N[C@@H](CO)C(=O)N[C@@H](CC(C)C)C(=O)O)C(C)C [3102.0291] (H-TMFKIVYSL-OH) | 0.92 |
| CC[C@H](C)[C@H](NC(=O)[C@H](CC(N)=O)NC(=O)[C@H](CCSC)NC(=O)[C@@H](NC(=O)[C@@H](N)CCSC)[C@@H](C)O)C(=O)N[C@H](C(=O)N[C@@H](CC(N)=O)C(=O)N[C@@H](Cc1ccccc1)C(=O)N[C@@H](Cc1ccccc1)C(=O)O)C(C)C [3102.0518] (H-MTMNIVNFF-OH) | 1.9 |
| CC[C@H](C)[C@H](N)C(=O)N[C@H](C(=O)N[C@@H](Cc1ccc(O)cc1)C(=O)N[C@@H](Cc1c[nH]c2ccccc12)C(=O)N[C@@H](CO)C(=O)N[C@@H](CCCNC(=N)N)C(=O)N[C@@H](Cc1ccccc1)C(=O)N[C@H](C(=O)N[C@H](C(=O)O)[C@@H](C)CC)[C@@H](C)O)[C@@H](C)O [3102.0387] (H-ITYWSRFTI-OH) | 2.5 |
| CC(C)C[C@H](NC(=O)[C@@H](N)C(C)C)C(=O)N[C@@H](Cc1ccc(O)cc1)C(=O)N[C@@H](CC(N)=O)C(=O)N[C@@H](CC(N)=O)C(=O)N[C@H](C(=O)N[C@H](C(=O)N[C@@H](CCC(=O)O)C(=O)N[C@@H](Cc1ccccc1)C(=O)O)C(C)C)C(C)C [3102.0424] (H-VLYNNVVEF-OH) | 1.5 |
| CC[C@H](C)[C@H](N)C(=O)N[C@H](C(=O)N[C@@H](CO)C(=O)N[C@H](C(=O)N[C@H](C(=O)N[C@@H](CO)C(=O)N[C@@H](CC(C)C)C(=O)N[C@H](C(=O)N[C@H](C(=O)O)[C@@H](C)CC)C(C)C)[C@@H](C)CC)C(C)C)[C@@H](C)CC [3102.0334] (H-IISVISLVI-OH) | 47 |
| CC[C@H](C)[C@H](N)C(=O)N[C@@H](CO)C(=O)N[C@@H](Cc1c[nH]c2ccccc12)C(=O)N[C@@H](CCSC)C(=O)N[C@@H](CCSC)C(=O)N[C@@H](CCCCN)C(=O)N[C@@H](CC(C)C)C(=O)NCC(=O)N[C@H](C(=O)O)[C@@H](C)CC [3102.0399] (H-ISWMMKLGI-OH) | 42 |
| CC[C@H](C)[C@H](NC(=O)[C@@H](NC(=O)[C@H](CC(C)C)NC(=O)[C@H](CO)NC(=O)[C@H](CCC(N)=O)NC(=O)[C@H](Cc1ccccc1)NC(=O)[C@H](CC(=O)O)NC(=O)[C@H](CCC(N)=O)NC(=O)[C@H](C)N)[C@@H](C)O)C(=O)O [3102.0299] (H-AQDFQSLTI-OH) | 68 |
